# Measured values from EP0188169A1, “Bis-2-(4-hydroxy-2-isopropyl-5-methyl-phenoxy)-ethyl amines, process for their synthesis and pharmaceutical preparations containing them” (CORTIAL S.A., priority 1984, dated 1986).
# Like-named read-outs stand apart in the source and are kept apart here.
# What was measured:
# [1] = Acute toxicity (mortality, LD50) in mice; assay type: in vivo; conditions: in vivo, mouse
# souris = test: Acute toxicity (mortality, LD50) in mice; assay type: in vivo; conditions: mouse
# [2] = test system: contractions de strips aortiques isolés de lapin induites par la noradrénaline; test: Alpha-blocking activity in vitro: antagonism of noradrenaline-induced contractions of isolated rabbit aortic strips; assay type: cell-based; conditions: Oryctolagus cuniculus, 1 h; noradrenaline 2.10^-6 mole/l; compound added 60 mn before the agonist; limits in brackets; read-out: CI50 (concentration inhibant 50% des contractions)
# Source text: Activité alohabloauante : In vitro l'activité alphabloquante est appréciée par la détermination de l'antagonisme des contractions de strips aortiques isolés de lapin induites par la noradrénaline employée à la concentration de 2.10^-6 mole/l selon une technique dérivée de celle de Furchgott et Bhadrakom (J. Pharmacol., 1953, 108, 129-43). L'activité maximale est obtenue quand le COR28 35 est introduit dans le bain 60 mn avant l'agoniste. La CI50 (concentration inhibant 50% des contractions) est égale dans ces conditions à 1,52.10-' (1,12.10^-7 -2,07.10-') mole/l.
# [3] = test system: hypertension induite par la phényléphrine; test: Alpha-blocking activity in vivo: antagonism of phenylephrine-induced hypertension in pithed, bivagotomised rats (i.v.); set-up: species or system rats amyélés et bivagotomisés; conditions: for ED50: Rattus norvegicus, iv, read-out: DE50 (the source's name)
# Source text: ln vivo l'activité alpha bloquante est appréciée par la détermination de l'antagonisme de l'hypertension induite par la phényléphrine. Le produit à tester est administré par voie intraveineuse à des rats amyélés et bivagotomisés selon la technique de J.S.Gillespie et T.S. Muir (Br.J. Pharmac. Chemother., 1967, 30, 78-87). On indique ci-après pour le COR28 35, en fonction de la dose administrée, l'activité maximale et le temps au bout duquel l'activité résiduelle est égale à 50% de l'activité maximale : 4,42.10^-7 M/kg, --77,8%. 30 mn; 10^-6 M/kg, -94,5%, 55 mn; 3,53.10^-6 M/kg, -97,1%, 90 mn. La DE50 déterminée dans ces conditions pour le COR28 35 est de 1,48.10^-8 mole/kg au bout de 2 mn, 6,77.10^-7 mole/kg au bout de 30 mn et 1,87.10^-6 mole/kg au bout de 60 mn.
# [4] = test system: effet hypertenseur induit par 4.10-' mg/kg de phényléphrine; test: Alpha-blocking activity in conscious normal rats: antagonism of the phenylephrine pressor effect (oral); assay type: in vivo, rat Sprague-Dawley normal vigile
# Source text: L'activité alphabloquante des produits selon la présente invention à également été déterminée chez le rat Sprague-Dawley normal vigile. Les veines jugulaires et les artères carotides des animaux sont cathétérisées sous anesthésie à l'éther. Après récupération d'une heure, la pression artérielle et la fréquence cardiaque sont enregistrées de façon continue. L'activité des produits à tester, administrés par voie oral, vis à vis de l'effet hypertenseur induit par 4.10-' mg/kg de phényléphrine est déterminée. On indique ci-après pour le COR28 35, en fonction de la dose administrée, l'activité maximale et le temps au bout duquel l'activité résiduelle est égale à 50% de l'activité maximale : 5 mg/kg, -38,75%, 66 mm; 10 mg/kg, --37.18%. 65 mn; 20 mg/kg, -66,37%, 66 mn.
# [5] = test system: rats spontanément hypertendus; test: Antihypertensive activity in spontaneously hypertensive rats (oral); assay type: in vivo
# Procedure: Activité antihvoertensive : le produit à tester est administré par voie orale à des rats spontanément hypertendus. La pression artérielle est mesurée de façon indirecte en utilisant un sphygmomanomètre. Pour le COR28 35 administré à la dose de 100 mg/kg/j pendant 2 jours, la chute de pression maximale observée est de 14% le premier jour de traitement, 1 heure après le gavage. […] Administré dans les mêmes conditions à la dose de 50 mg/kg/j, la chute de pression artérielle maximale est de 15% 1 heure après gavage.
# [6] = test system: contractions induites par 2,5.10^-8 g/ml d'angiotensine I sur des préparations de segments d'iléon de cobaye; test: Inhibition of angiotensin I-induced contractions of guinea-pig ileum segments; assay type: cell-based; conditions: concentration 10-' g/ml; angiotensin I 2,5.10^-8 g/ml added 2 mn after the compound
# Source text: L'activité inhibitrice des produits de la présente invention vis à vis des contractions induites par 2,5.10^-8 g/ml d'angiotensine I sur des préparations de segments d'iléon de cobaye a été déterminée. L'angiotensine 1 est introduite dans le bain 2 mn après le produit à tester. Dans ces conditions, le COR28 35 entraine 51% d'inhibition des contractions à la concentration de 10-' g/ml.
# [7] = test system: anaphylaxie passive cutanée; test: Antiallergic activity: passive cutaneous anaphylaxis test; assay type: in vivo; conditions: rat, oral
# Procedure: Activité antiallergigue : dans le test de l'anaphylaxie passive cutanée, le COR28 35 administré à 5 mg/kg par voie orale chez le rat entraine 60% d'activité. La prométhazine, administrée dans les mêmes conditions, entraine 53% d'activité à la dose de 10 mg/kg.
# [8] = test system: contraction induite par 5.10^-7g/ml de sérotonine sur iléon isolé de cobaye; test: Antiserotoninergic activity: serotonin-induced contraction of isolated guinea-pig ileum; assay type: cell-based; conditions: serotonin 5.10^-7g/ml; compound in contact 15 mn before the agonist; limits in brackets; read-out: CI50 (ou concentration inhibant 50% des contractions)
# Source text: Activité antisérotoninergigue : le COR28 35 inhibe in vitro la contraction induite par 5.10^-7g/ml de sérotonine sur iléon isolé de cobaye. L'effet maximum est obtenu quand le COR28 35 est mis au contact de l'organe isolé 15 mn avant d'introduire l'agoniste. La CI50 (ou concentration inhibant 50% des contractions) est dans ces conditions de 1,58.10^-7(1,00.10^-7-2,51.10^-7) mole/l.
# [9] = test system: tremblements musculaires produits chez la souris par l'administration de 0,5 mg/kg d'oxotrémorine; test: Anticholinergic activity: oxotremorine-induced muscle tremors in mice; assay type: in vivo; conditions: mouse, intraperitoneal, assessed one hour after administration, oxotremorine 0,5 mg/kg s.c.
# Procedure: Activité anticholineraiaue : l'activité inhibitrice des produits de la présente invention vis à vis des tremblements musculaires produits chez la souris par l'administration de 0,5 mg/kg d'oxotrémorine par voie sous cutanée est déterminée. L'eftet est apprécié une heure après l'administration par voie intrapéritonéale des produits à tester; dans ces conditions, le COR28 35 est actif à la dose de 5mg/kg.
# [10] = test system: souris rendue hy- percholestérotémique; test: Hypolipidaemic activity in mice made hypercholesterolaemic by diet; assay type: in vivo; conditions: mouse, oral, 200 mg/kg on days 6 and 7 of the diet
# Procedure: Activité hvoolioidémiante : chez la souris rendue hy- percholestérotémique par un régime riche en cholestérol et acide cholique pendant 7 jours, l'administration de 200 mg/kg de COR28 35 par voie orale, le 6° et le 7° jour, entraine une diminution du cholestérol sérique de 17% et une diminution des HP-bétalipoprotéines de 27% accompagnées d'une diminution du rapport VLDL + LDL/cholestérol.
compound,measurement,setting,value
Cc1cc(OCCN(C)CCOc2cc(C)c(O)cc2C(C)C)c(C(C)C)cc1O [COR28 35],mortality,"[1]; ip, intraperitoneal, 1000 mg/kg, read-out: mortalité",40%
same,LD50,"[1]; intravenous, limits in brackets, read-out: DL50 (the source's name)",53.5 mg/kg
same,mortalité,"souris; intraperitoneal, 500 mg/kg",aucune mortalité
same,mortalité,"souris; oral, 300 mg/kg",aucune mortalité
same,IC50,[2],152 nM
same,ED50,"[3]; 2 min, i.v., after 2 mn",0.0148 µmol/kg
same,ED50,"[3]; 0.5 h, i.v., after 30 mn",0.677 µmol/kg
same,ED50,"[3]; 1 h, i.v., after 60 mn",1.87 µmol/kg
same,activité maximale,"[3]; i.v., 3,53.10^-6 M/kg","-97,1%"
same,temps au bout duquel l'activité résiduelle est égale à 50% de l'activité maximale,"[3]; i.v., 3,53.10^-6 M/kg",90 mn
same,temps au bout duquel l'activité résiduelle est égale à 50% de l'activité maximale,"[3]; i.v., 4,42.10^-7 M/kg",30 mn
same,activité maximale,"[3]; i.v., 10^-6 M/kg","-94,5%"
same,temps au bout duquel l'activité résiduelle est égale à 50% de l'activité maximale,"[3]; i.v., 10^-6 M/kg",55 mn
same,activité maximale,[4]; 5 mg/kg,"-38,75%"
same,temps au bout duquel l'activité résiduelle est égale à 50% de l'activité maximale,[4]; 5 mg/kg,66 min
same,temps au bout duquel l'activité résiduelle est égale à 50% de l'activité maximale,[4]; 10 mg/kg,65 mn
same,activité maximale,[4]; 20 mg/kg,"-66,37%"
same,temps au bout duquel l'activité résiduelle est égale à 50% de l'activité maximale,[4]; 20 mg/kg,66 mn
same,chute de pression artérielle maximale,"[5]; 50 mg/kg/j, 1 hour after gavage",15%
same,pression par rapport au lot témoin,"[5]; 100 mg/kg/j for 2 days, 6 hours after gavage on the second day",significativement abaissée
same,chute de pression maximale observée,"[5]; 100 mg/kg/j for 2 days, first day of treatment, 1 hour after gavage",14%
same,inhibition des contractions,[6],51%
same,activité,[7]; 5 mg/kg,60%
same,IC50,[8],158 nM
same,activité inhibitrice vis à vis des tremblements musculaires,[9],actif
same,diminution des HP-bétalipoprotéines,[10],27%
same,diminution du cholestérol sérique,[10],17%
same,rapport VLDL + LDL/cholestérol,[10],diminution
"CC(CN1c2ccccc2Sc2ccccc21)N(C)C (centres unmarked) [prométhazine, reference compound]",activité,[7]; 10 mg/kg,53%
